{"source": "patent US20230348564A1", "about": "“ANTI-CANCER PROTEINS” (UNICHEM LABORATORIES LTD, priority 2020, published 2023)", "key": {"MDA-MB-231": {"system": "MDA-MB-231", "assay": "Cell cycle analysis (PI stain)", "assay_type": "cell-based, Human", "conditions": "24 h", "protocol": "(§1) The cell lines were maintained in DMEM+10% FBS (heat inactivated) at 37° C. with 5% CO2, and 95% humidity. Antibiotics Penicillin (100 U/mL) and Streptomycin (100 μg/mL) were added to the medium.\n(§2) The stock solution of recombinant lectin having the amino acid sequence of SEQ ID NO. […] Doxorubicin was used as positive control and stock solution was prepared in DMSO.\n(§3) Cells were counted using hemocytometer and plated in culture plates at density of 0.5×10^6 cells/well in DMEM+10% FBS in 6-well plates. Cells were incubated overnight to allow the cell recovery and exponential growth. Following overnight incubation, cells were sera starved in DMEM+1% FBS for 4 h. […] Untreated cells were included as Control group for test item. Cells treated with Doxorubicin were included as Positive Control group. DMSO treated cells were included as control group for Doxorubicin. After treatment, cells were incubated for a time period of 24 h. Following incubation, the pro-apoptotic effect by cell cycle was determined as follows: Cell cycle reagent contains PI stain, which stains DNA of cells in different phases of cell cycle; Sub(G0/G1), G1, S, G2 and M. Cells in Sub(G0/G1) phase correspond to apoptotic cells.\n(§4) Cells were gently harvested into pre-labeled centrifuge tubes and centrifuged at 450 g for 5 min, RT (low brake). The supernatants were removed carefully (not to touch the pellet) and discarded. 1 mL of 1×PBS was added to the pellet and resuspended gently to make homogenous suspension. Cells were centrifuged at 450 g for 5 min, RT (low brake) (washing step). The supernatant was carefully removed leaving behind approx 100 μL of PBS. Cells were resuspended gently yet thoroughly in residual PBS. Ice-cold 70% ethanol (300 μLI) was added drop-wise into cells in each tube while vortexing at low speed (fixation step). Cells were stored at 4° C. for 24 h prior to staining.\n(§5) Ethanol fixed cells were centrifuged at 450 g for 5 min, RT (low brake). The supernatant was carefully removed (not to touch the pellet) and discarded. (The pellet might not be visible but makes a thin film on surface of tube). 1 mL of 1×PBS was added into pellet and resuspended gently. Cells were incubated for 1 min at RT. Cells were centrifuged at 450 g for 5 min, RT (low brake) (washing step). The supernatant was removed carefully leaving behind approx 20 μL-50 μL of PBS. 200 μL of Cell Cycle reagent was added into each tube.\n(§6) Cells were resuspended gently, mixed and were incubated for 30 min, RT, Dark. The stained samples were transferred into 96-well plates and acquired on flow cytometer (Guava technologies). Percentage of cells in Sub (G0/G1) phase were determined. Fold increase in apoptotic cells (treated with Test Items) was determined as compared to Control (untreated cells)."}, "PANC-1": {"system": "PANC-1", "assay": "Cell cycle analysis (PI stain)", "assay_type": "cell-based, Human", "conditions": "24 h", "protocol": "as §1, §2, §3, §4, §5, §6"}, "Glioma (C6)": {"system": "Glioma (C6)", "assay": "cytotoxicity in Brain Tumor Cell lines by MTT assay", "assay_type": "cell-based, Rat", "conditions": "0.1 Mm-100 μM, 72 h", "protocol": "The SEQ ID NO. […] Untreated cells were used as control. […] Cells were incubated for 3 h at 37° C."}, "Notch-1": {"system": "Notch-1", "assay": "biomarker levels in IOMM-Lee by ELISA", "assay_type": "cell-based, Human", "conditions": "1 μM", "from_the_text": "Effect of SEQ ID No 2 on the expression of following 7 biomarkers were estimated in Human Meningioma cell line (IOMM-Lee) using multiplex analysis: TNF-alpha, VEGF, VEGFR2, HGF, HGFR/c-MET, PDGF-BB, and Contactin-1. Levels of another marker, Notch-1 were also estimated by ELISA in the same cell line. These 8 biomarkers play very crucial role in the pathogenesis and progression of Brain Tumor. […] Supernatants were collected and the levels of these 8 markers were investigated."}, "Meningioma (IOMM-Lee)": {"system": "Meningioma (IOMM-Lee)", "assay": "cytotoxicity in Brain Tumor Cell lines by MTT assay", "conditions": "0.1 Mm-100 μM, 72 h"}, "[1]": {"system": "PBMCs (Peripheral blood mononuclear cells)", "assay": "MTT cytotoxicity assay", "conditions": "SEQ ID NO. 2 80 μg/ml, doxorubicin 75 μM; 48h", "protocol": "(§7) All the cancer cell lines were procured from National Centre for Cell Science, Pune (India). Cell lines were maintained under conditions as mentioned in Table 23. The cell lines were sub-cultured by trypsinization followed by splitting the cell suspension into fresh flasks and supplementing with fresh culture medium.\n(§8) All the cell lines were grown in specified media at 37° C. with 95% Humidity and 5% CO2.\n(§9) The cells were trypsinized, counted by Trypan blue method in Neuebauer's Chamber and plated in wells of flat bottom 96-well plate at the density corresponding to 10×10^3 cells/well/200 μL medium.\n(§10) Following overnight incubation, the media in the plate was replenished with 180 μL/well and then the cells were treated with 20 μL of each test item at concentrations ranging from 2.5 μg/mL-80 μg/mL in triplicates, so that the total volume in each well is 200 μL.\n(§11) The untreated cells served as negative control. The cells were incubated with the test items or positive control for a time period of 48h. Following incubation, the cell cytotoxicity was estimated using MTT assay. Absorbance was measured at 540 nm. The percentage cytotoxicity corresponding to each treatment was calculated using the formula:\n(§12) % Cytotoxicity=(1−X/R)*100\n(§13) Where X=absorbance of wells corresponding to treated cells R=absorbance of untreated cells (cells maintained in growth medium only)\n(§14) IC50 value was calculated using Graph-Pad Prism version 4.01 software."}, "[2]": {"system": "PANC-1 (Human pancreatic epitheloid carcinoma)", "assay": "MTT cytotoxicity assay", "conditions": "SEQ ID NO. 2 80 μg/ml, doxorubicin 75 μM; 48h", "protocol": "as §7, §8, §9, §10, §11, §12, §13, §14"}, "[3]": {"system": "MIA PaCa-2 (Human pancreatic carcinoma)", "assay": "MTT cytotoxicity assay", "conditions": "SEQ ID NO. 2 80 μg/ml, doxorubicin 75 μM; 48h", "protocol": "as §7, §8, §9, §10, §11, §12, §13, §14"}, "[4]": {"system": "MDA-MB-453 (Human breast metastatic carcinoma)", "assay": "MTT cytotoxicity assay", "conditions": "SEQ ID NO. 2 80 μg/ml, doxorubicin 75 μM; 48h", "protocol": "as §7, §8, §9, §10, §11, §12, §13, §14"}, "[5]": {"system": "MDA-MB-231 (Human breast adenocarcinoma)", "assay": "MTT cytotoxicity assay", "conditions": "SEQ ID NO. 2 80 μg/ml, doxorubicin 75 μM; 48h", "protocol": "as §7, §8, §9, §10, §11, §12, §13, §14"}, "[6]": {"system": "T24 (Human Bladder Cancer)", "assay": "MTT cytotoxicity assay", "conditions": "SEQ ID NO. 2 80 μg/ml, doxorubicin 75 μM; 48h", "protocol": "as §7, §8, §9, §10, §11, §12, §13, §14"}, "[7]": {"system": "MCF-7 (Human breast adenocarcinoma)", "assay": "MTT cytotoxicity assay", "conditions": "SEQ ID NO. 2 80 μg/ml, doxorubicin 75 μM; 48h", "protocol": "as §7, §8, §9, §10, §11, §12, §13, §14"}, "[8]": {"system": "T-47D (Human mammary gland ductal carcinoma)", "assay": "MTT cytotoxicity assay", "conditions": "SEQ ID NO. 2 80 μg/ml, doxorubicin 75 μM; 48h", "protocol": "as §7, §8, §9, §10, §11, §12, §13, §14"}, "Astrocytoma (U87MG)": {"system": "Astrocytoma (U87MG)", "assay": "cytotoxicity in Brain Tumor Cell lines by MTT assay", "conditions": "0.1 Mm-100 μM, 72 h"}}, "data": [{"molecule": "COc1cccc2c1C(=O)c1c(O)c3c(c(O)c1C2=O)C[C@@](O)(C(=O)CO)C[C@@H]3O[C@H]1C[C@H](N)[C@H](O)[C@H](C)O1", "note": "[Doxorubicin, reference compound]", "values": [{"measurement": "% Population of cells, Apoptotic Sub(G0/G1)", "setting": "MDA-MB-231; 10 μM", "value": 11.09, "unit": "%"}, {"measurement": "% Population of cells, G0/G1", "setting": "MDA-MB-231; 10 μM", "value": 40.26, "unit": "%"}, {"measurement": "% Population of cells, G2/M", "setting": "MDA-MB-231; 10 μM", "value": 18.52, "unit": "%"}, {"measurement": "% Population of cells, S", "setting": "MDA-MB-231; 10 μM", "value": 22.70, "unit": "%"}, {"measurement": "% Population of cells, Apoptotic Sub(G0/G1)", "setting": "MDA-MB-231; 100 μM", "value": 92.02, "unit": "%"}, {"measurement": "% Population of cells, G0/G1", "setting": "MDA-MB-231; 100 μM", "value": 5.64, "unit": "%"}, {"measurement": "% Population of cells, G2/M", "setting": "MDA-MB-231; 100 μM", "value": 0.83, "unit": "%"}, {"measurement": "% Population of cells, S", "setting": "MDA-MB-231; 100 μM", "value": 1.17, "unit": "%"}, {"measurement": "% Population of cells, Apoptotic Sub(G0/G1)", "setting": "PANC-1; 10 μM", "value": 14.74, "unit": "%"}, {"measurement": "% Population of cells, G0/G1", "setting": "PANC-1; 10 μM", "value": 15.84, "unit": "%"}, {"measurement": "% Population of cells, G2/M", "setting": "PANC-1; 10 μM", "value": 27.44, "unit": "%"}, {"measurement": "% Population of cells, S", "setting": "PANC-1; 10 μM", "value": 18.45, "unit": "%"}, {"measurement": "% Population of cells, Apoptotic Sub(G0/G1)", "setting": "PANC-1; 100 μM", "value": 89.13, "unit": "%"}, {"measurement": "% Population of cells, G0/G1", "setting": "PANC-1; 100 μM", "value": 9.65, "unit": "%"}, {"measurement": "% Population of cells, G2/M", "setting": "PANC-1; 100 μM", "value": 0.15, "unit": "%"}, {"measurement": "% Population of cells, S", "setting": "PANC-1; 100 μM", "value": 0.59, "unit": "%"}, {"measurement": "% of cytotoxicity", "setting": "Glioma (C6)", "value": "57.8%-86.3%"}, {"measurement": "Percentage inhibition on levels of Notch-1", "setting": "Notch-1", "value": 8, "unit": "%"}, {"measurement": "% of cytotoxicity", "setting": "Meningioma (IOMM-Lee)", "value": "46.6%-54.5%"}, {"measurement": "Cytotoxicity at highest concentration tested", "setting": "[1]", "value": 32.0, "unit": "%"}, {"measurement": "Cytotoxicity at highest concentration tested", "setting": "[2]", "value": 65.1, "unit": "%"}, {"measurement": "Cytotoxicity at highest concentration tested", "setting": "[3]", "value": 63.9, "unit": "%"}, {"measurement": "Cytotoxicity at highest concentration tested", "setting": "[4]", "value": 71.4, "unit": "%"}, {"measurement": "Cytotoxicity at highest concentration tested", "setting": "[5]", "value": 50.2, "unit": "%"}, {"measurement": "Cytotoxicity at highest concentration tested", "setting": "[6]", "value": 54.4, "unit": "%"}, {"measurement": "Cytotoxicity at highest concentration tested", "setting": "[7]", "value": 64.9, "unit": "%"}, {"measurement": "Cytotoxicity at highest concentration tested", "setting": "[8]", "value": 51.1, "unit": "%"}, {"measurement": "% of cytotoxicity", "setting": "Astrocytoma (U87MG)", "value": "46.6%-72.4%"}]}]}
